Measured values from publication PMC6825211 (Nature Communications, 2019).
“And” between values parts separate entries of the source, which are not always exact repeats. Equal entries are not always repeated.

Key:
[1] = MLD–STZ model: body weight; type: in vivo, mouse; settings: 5 mg/kg i.p. daily, 35 days
[2] = target: JAK2 (Homo sapiens, UniProt O60674); test: Nanosyn kinase profiling, mobility shift assay; settings: read-out: % inhibition by neratinib
[3] = target: MET (Homo sapiens, UniProt P08581); test: Nanosyn kinase profiling, mobility shift assay; settings: read-out: % inhibition by neratinib
Chain of MET (P08581 25-1390): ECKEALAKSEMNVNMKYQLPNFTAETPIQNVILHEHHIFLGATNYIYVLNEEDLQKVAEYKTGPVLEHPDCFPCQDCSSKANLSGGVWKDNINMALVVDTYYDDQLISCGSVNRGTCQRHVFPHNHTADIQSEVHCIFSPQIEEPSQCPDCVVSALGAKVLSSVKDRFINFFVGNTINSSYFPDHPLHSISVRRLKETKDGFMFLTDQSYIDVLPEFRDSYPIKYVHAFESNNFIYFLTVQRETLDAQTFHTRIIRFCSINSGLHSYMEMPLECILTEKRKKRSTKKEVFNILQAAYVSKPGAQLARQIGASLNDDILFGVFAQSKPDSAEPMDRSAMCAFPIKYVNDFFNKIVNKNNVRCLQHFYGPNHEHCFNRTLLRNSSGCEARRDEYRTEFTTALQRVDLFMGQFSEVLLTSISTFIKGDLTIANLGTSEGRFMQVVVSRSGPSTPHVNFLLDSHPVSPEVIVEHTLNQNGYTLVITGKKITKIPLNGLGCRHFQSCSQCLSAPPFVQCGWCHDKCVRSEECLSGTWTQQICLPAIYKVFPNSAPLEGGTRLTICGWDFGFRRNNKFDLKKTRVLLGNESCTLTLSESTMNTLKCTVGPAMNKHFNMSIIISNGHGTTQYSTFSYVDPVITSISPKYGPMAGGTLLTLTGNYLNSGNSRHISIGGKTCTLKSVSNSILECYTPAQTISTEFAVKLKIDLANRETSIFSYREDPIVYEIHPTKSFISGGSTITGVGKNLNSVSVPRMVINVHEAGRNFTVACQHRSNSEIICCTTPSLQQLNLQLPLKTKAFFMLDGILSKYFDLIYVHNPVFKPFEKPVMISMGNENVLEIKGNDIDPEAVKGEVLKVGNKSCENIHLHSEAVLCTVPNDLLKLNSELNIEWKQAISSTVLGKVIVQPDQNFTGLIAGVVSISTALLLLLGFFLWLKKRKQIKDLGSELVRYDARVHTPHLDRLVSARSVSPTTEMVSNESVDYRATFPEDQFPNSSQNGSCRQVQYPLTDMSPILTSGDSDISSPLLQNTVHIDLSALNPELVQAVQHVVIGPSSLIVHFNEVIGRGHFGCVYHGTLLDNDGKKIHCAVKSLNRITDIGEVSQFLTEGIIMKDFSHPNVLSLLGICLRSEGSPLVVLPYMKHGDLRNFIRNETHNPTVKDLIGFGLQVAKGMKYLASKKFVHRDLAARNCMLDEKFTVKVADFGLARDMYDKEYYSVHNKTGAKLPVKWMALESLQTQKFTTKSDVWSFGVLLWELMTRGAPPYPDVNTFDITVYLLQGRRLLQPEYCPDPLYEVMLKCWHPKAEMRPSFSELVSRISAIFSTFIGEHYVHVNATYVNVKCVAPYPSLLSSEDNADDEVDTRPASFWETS

[4] = target: IKK-BETA (Homo sapiens, UniProt O14920); test: Nanosyn kinase profiling, mobility shift assay; settings: read-out: % inhibition by neratinib
Chain of IKK-BETA (O14920 whole entry): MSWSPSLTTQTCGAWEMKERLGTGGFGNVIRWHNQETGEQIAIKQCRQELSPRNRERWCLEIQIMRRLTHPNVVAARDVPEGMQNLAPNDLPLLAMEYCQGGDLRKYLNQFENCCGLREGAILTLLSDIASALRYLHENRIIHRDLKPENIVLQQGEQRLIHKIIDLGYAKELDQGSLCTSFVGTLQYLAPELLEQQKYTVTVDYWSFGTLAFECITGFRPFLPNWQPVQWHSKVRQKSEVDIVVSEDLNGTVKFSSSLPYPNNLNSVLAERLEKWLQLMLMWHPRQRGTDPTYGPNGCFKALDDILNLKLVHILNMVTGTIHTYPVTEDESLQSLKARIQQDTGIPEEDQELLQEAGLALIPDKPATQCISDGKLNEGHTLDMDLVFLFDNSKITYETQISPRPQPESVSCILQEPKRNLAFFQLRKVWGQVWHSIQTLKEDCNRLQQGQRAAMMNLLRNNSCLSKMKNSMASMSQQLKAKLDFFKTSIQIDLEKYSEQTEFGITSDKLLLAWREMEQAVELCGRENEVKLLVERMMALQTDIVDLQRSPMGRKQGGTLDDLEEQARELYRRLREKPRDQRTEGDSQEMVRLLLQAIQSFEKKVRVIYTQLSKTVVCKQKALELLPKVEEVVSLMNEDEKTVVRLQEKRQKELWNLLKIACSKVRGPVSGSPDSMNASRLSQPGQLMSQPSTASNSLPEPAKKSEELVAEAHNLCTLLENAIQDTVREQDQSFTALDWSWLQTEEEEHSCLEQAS

[5] = db/db model: body weight; settings: 5 mg/kg i.p. daily, 31 days
[6] = target: FAK (Homo sapiens, UniProt Q05397); test: Nanosyn kinase profiling, mobility shift assay; settings: read-out: % inhibition by neratinib
Chain of FAK (Q05397 whole entry): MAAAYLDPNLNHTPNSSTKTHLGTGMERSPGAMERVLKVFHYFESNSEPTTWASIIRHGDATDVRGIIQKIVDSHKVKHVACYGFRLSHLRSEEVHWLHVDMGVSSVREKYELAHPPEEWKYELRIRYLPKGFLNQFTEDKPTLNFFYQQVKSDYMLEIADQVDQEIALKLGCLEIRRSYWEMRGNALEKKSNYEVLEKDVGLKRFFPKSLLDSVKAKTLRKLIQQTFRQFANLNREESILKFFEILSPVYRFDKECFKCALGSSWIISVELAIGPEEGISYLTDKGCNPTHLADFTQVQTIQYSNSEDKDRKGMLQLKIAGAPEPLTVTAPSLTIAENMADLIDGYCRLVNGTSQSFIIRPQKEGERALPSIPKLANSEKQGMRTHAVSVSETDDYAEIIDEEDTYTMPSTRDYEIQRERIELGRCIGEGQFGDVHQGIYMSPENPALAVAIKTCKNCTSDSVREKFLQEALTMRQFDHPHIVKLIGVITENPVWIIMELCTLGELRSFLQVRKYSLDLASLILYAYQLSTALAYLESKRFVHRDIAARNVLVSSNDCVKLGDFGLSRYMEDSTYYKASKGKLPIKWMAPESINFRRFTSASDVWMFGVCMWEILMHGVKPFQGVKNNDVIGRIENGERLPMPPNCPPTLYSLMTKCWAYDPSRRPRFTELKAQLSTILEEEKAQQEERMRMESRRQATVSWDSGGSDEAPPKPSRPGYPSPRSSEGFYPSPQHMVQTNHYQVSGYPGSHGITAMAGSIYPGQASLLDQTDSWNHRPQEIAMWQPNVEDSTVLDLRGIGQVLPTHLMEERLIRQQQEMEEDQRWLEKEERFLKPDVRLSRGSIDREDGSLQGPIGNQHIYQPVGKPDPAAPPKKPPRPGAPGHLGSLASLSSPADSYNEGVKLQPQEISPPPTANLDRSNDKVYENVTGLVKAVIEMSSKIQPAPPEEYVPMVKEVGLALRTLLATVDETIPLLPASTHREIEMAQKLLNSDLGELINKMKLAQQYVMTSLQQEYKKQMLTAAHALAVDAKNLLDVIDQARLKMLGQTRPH

[7] = test system: obese diabetic Lepr db/db mice; test: db/db model: ratio of secreted insulin and glucose at fed state; type: in vivo, mouse; settings: dbdb Nera
[8] = target: SYK (Homo sapiens, UniProt P43405); test: Nanosyn kinase profiling, mobility shift assay; settings: read-out: % inhibition by neratinib
[9] = test system: MLD–STZ C57BL/6J mice; test: MLD–STZ model: intraperitoneal glucose tolerance test (ipGTT); type: in vivo, mouse; set-up: ipGTT glucose / AUC ipGTT: unit not given here
Protocol: C57Bl/6J mice were injected with 40 mg/kg streptozotocin or citrate buffer for 5 consecutive days. […] In d, basal glucose values were normalized to 100%. e Insulin secretion measured from retro-orbital blood draw during an ipGTT measured before (0 min) and 15 min after glucose injection; data are expressed as the ratio of secreted insulin at 15 min/0 min (stimulatory index). f The ratio of secreted insulin and glucose is calculated at fed state. g–i Mice were killed at day 35. g β-cell mass (given as percentage of the whole pancreatic section from ten sections spanning the width of the pancreas) and quantitative analyses from triple staining for h TUNEL or i Ki67, insulin, and DAPI expressed as percentage of TUNEL- or Ki67-positive β-cells ±SEM. An average number of 2331 (h), or 26369 (i) β-cells were counted. n = 9 mice/group for (a); n = 4–12 for (b); n = 5–15 for (c) and (d); n = 12–19 for (e); n = 8–14 for (f); n = 4–9 for (g); n = 4–11 for (h); and n = 6–11 mice/groupfor (i); all from three independent experiments).
For intraperitoneal glucose tolerance tests, mice were fasted 12 h overnight and injected i.p. with glucose (40%; B.Braun, Melsungen, Germany) at a dose of 1 g/kg body weight. Blood samples were obtained at time points 0, 15, 30, 60, 90, and 120 min for glucose measurements by using a Glucometer. For i.p. insulin tolerance tests, mice were injected with 0.75 U/kg body weight recombinant human insulin (Novolin, Novo Nordisk) after 4–5-h fasting, and glucose concentration was determined with the Glucometer. Insulin secretion was measured before (0 min) and after (15 and 30 min) i.p. injection of glucose (2 g/kg) and measured by using ultrasensitive mouse Elisa kit (ALPCO Diagnostics, Salem, NH).

[10] = target: ITK (Homo sapiens, UniProt Q08881); test: Nanosyn kinase profiling, mobility shift assay; settings: read-out: % inhibition by neratinib
Chain of ITK (Q08881 whole entry): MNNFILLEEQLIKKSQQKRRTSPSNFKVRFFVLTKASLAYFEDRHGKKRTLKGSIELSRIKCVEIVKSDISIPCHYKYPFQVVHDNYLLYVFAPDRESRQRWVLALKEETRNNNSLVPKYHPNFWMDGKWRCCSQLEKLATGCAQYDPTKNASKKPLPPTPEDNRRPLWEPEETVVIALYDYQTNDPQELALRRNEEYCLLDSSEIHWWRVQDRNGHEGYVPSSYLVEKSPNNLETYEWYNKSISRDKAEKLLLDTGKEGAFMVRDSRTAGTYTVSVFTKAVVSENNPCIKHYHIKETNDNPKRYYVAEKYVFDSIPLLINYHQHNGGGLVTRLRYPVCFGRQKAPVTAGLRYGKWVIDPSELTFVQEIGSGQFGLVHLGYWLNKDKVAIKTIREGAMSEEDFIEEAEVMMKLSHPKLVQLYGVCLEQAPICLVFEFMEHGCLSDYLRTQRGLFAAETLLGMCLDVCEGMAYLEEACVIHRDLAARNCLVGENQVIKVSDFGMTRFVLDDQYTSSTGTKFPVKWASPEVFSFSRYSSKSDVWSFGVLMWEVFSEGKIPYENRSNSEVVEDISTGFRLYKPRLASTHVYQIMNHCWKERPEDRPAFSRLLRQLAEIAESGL

[11] = target: CAMK4 (Homo sapiens, UniProt Q16566); test: Nanosyn kinase profiling, mobility shift assay; settings: read-out: % inhibition by neratinib
[12] = test system: obese diabetic Lepr db/db mice; test: db/db model: β-cell apoptosis (TUNEL); type: in vivo, mouse; settings: for TUNEL%/ mouse: dbdb mice
Excerpt: Data are representative of six mice per group (n = 6 for (a–f)). g–j Mice were killed at day 31. g β-cell mass (given as percentage of the whole pancreatic section from ten sections spanning the width of the pancreas; n = 5 mice/group) and quantitative analyses from triple stainings for (h) TUNEL, (i) Ki67, (j) pHH3, and (k) nuclear PDX1 expression, insulin, and DAPI expressed as percentage of TUNEL-, Ki67-, pHH3-, or nuclear PDX1-positive β-cells ± SEM. An average number of 13667 (h), 5937 (i), 7108 (j), or 4330 (k) β-cells were counted from n = 3–5 (h, i, k) or n = 5–6 (j) mice/group.
Mouse pancreases were dissected and fixed in 4% formaldehyde at 4 °C for 12 h before embedding in paraffin[62]. Two-four-micrometer sections were deparaffinized, rehydrated, and incubated overnight at 4 °C with anti-PDX-1 (Abcam; #47267), anti-Glut2 (Chemicon; #07-1402), anti-Ki67 (Dako; #M7249), anti-phospho-Histone H3 (Ser10; Merck #06-570), and anti-NKX6.1 (DSHB, University of Iowa #F55A12[66]) in combination with TSA (Invitrogen #T30955), or for 2 h at room temperature with anti-insulin (Dako; A0546) antibodies (all at a dilution of 1:100, except anti-PDX-1, which was diluted 1:400) followed by fluorescein isothiocyanate (FITC)- or Cy3-conjugated secondary antibodies (Jackson ImmunoResearch Laboratories, West Grove, PA). Slides were mounted with Vectashield with 4′6-diamidino-2-phenylindole (DAPI) (Vector Labs). β-cell apoptosis was analyzed by the terminal deoxynucleotidyl transferase-mediated dUTP nick-end labeling (TUNEL) technique according to the manufacturer’s instructions (In Situ Cell Death Detection Kit, TMR red; Roche) and double stained for insulin. Fluorescence was analyzed by using a Nikon MEA53200 (Nikon GmbH, Dusseldorf, Germany) microscope, and images were acquired by using NIS-Elements software (Nikon).

Chain of JAK2 (O60674 whole entry): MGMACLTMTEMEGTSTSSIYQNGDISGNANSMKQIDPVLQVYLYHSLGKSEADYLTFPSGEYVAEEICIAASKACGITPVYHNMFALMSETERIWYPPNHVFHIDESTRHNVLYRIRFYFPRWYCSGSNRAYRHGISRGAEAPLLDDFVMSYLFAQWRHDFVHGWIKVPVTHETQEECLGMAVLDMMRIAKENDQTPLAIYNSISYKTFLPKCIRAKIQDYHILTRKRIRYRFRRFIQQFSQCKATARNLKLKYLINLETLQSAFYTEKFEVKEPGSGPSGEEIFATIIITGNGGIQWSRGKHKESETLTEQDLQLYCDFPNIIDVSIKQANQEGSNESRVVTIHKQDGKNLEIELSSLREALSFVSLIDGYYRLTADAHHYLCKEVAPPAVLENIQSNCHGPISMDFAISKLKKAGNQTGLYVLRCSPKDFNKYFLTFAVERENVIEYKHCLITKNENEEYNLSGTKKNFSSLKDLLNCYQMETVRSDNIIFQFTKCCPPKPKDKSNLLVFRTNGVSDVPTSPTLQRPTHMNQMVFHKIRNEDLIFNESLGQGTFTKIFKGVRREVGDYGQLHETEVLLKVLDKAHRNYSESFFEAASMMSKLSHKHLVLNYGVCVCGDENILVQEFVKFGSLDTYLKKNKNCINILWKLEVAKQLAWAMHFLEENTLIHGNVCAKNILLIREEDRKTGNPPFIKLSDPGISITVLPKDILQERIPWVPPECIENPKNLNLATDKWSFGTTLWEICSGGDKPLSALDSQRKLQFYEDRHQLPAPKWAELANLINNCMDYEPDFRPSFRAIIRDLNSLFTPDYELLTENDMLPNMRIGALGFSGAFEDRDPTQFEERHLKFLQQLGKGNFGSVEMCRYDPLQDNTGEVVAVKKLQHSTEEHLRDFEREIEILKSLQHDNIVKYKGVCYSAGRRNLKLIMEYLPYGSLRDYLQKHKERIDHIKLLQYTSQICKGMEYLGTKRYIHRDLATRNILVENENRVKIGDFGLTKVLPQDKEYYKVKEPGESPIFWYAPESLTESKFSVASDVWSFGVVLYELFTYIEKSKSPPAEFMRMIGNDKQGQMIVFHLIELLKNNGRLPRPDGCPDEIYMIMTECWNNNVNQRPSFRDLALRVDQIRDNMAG

What does the source list for `CCOc1cc2ncc(C#N)c(Nc3ccc(OCc4ccccn4)c(Cl)c3)c2cc1NC(=O)/C=C/CN(C)C` [neratinib]?
body weight [1]: no influence on body weight; inhibition at 10 µM [2]: 18%; inhibition at 10 µM [3]: 28%; inhibition at 10 µM [4]: -7%; body weight [5]: no influence on body weight; inhibition at 10 µM [6]: 8%; ins/gluc ([7]; Mean): 13.8584; ins/gluc ([7]; fed state, individual mice): 16.7538 and 11.2869 and 14.8626 and 15.5775 and 11.515 and 13.1546; inhibition at 10 µM [8]: -14%; glucose tolerance in STZ mice ([9]; 5 mg/kg i.p. daily): significantly improved glucose tolerance; ipGTT glucose ([9]; NeraCtr, 0 min, Mean): 59.25; ipGTT glucose ([9]; NeraCtr, 0 min after glc, individual mice): 51 and 48 and 70 and 68; ipGTT glucose ([9]; NeraCtr, 15 min, Mean): 210.75; ipGTT glucose ([9]; NeraCtr, 15 min after glc, individual mice): 211 and 183 and 258 and 191; ipGTT glucose ([9]; NeraCtr, 30 min, Mean): 316.5; ipGTT glucose ([9]; NeraCtr, 30 min after glc, individual mice): 290 and 203 and 500 and 273; ipGTT glucose ([9]; NeraCtr, 60 min, Mean): 219.25; ipGTT glucose ([9]; NeraCtr, 60 min after glc, individual mice): 166 and 171 and 373 and 167; ipGTT glucose ([9]; NeraCtr, 90 min, Mean): 134.5; ipGTT glucose ([9]; NeraCtr, 90 min after glc, individual mice): 133 and 136 and 158 and 111; ipGTT glucose ([9]; NeraCtr, 120 min, MEAN): 96; ipGTT glucose ([9]; NeraCtr, 120 min after glc, individual mice): 91 and 96 and 116 and 81; AUC ipGTT ([9]; NeraCtr, individual mice): 20407.5 and 18322.5 and 14535 and 19072.5; ipGTT glucose ([9]; NeraSTZ, 0 min, mean line): 61.5; ipGTT glucose ([9]; NeraSTZ, 0 min after glc, individual mice): 67 and 66 and 51 and 57 and 80 and 63 and 62 and 69 and 65 and 44; ipGTT glucose ([9]; NeraSTZ, 15 min, mean line): 285.917; ipGTT glucose ([9]; NeraSTZ, 15 min after glc, individual mice): 304 and 272 and 259 and 246 and 291 and 315 and 312 and 420 and 217 and 264; ipGTT glucose ([9]; NeraSTZ, 30 min, mean line): 319.5; ipGTT glucose ([9]; NeraSTZ, 30 min after glc, individual mice): 308 and 348 and 303 and 268 and 319 and 424 and 341 and 371 and 315 and 292 and 282 and 263; ipGTT glucose ([9]; NeraSTZ, 60 min, mean line): 284.417; ipGTT glucose ([9]; NeraSTZ, 60 min after glc, individual mice): 274 and 307 and 368 and 214 and 271 and 308 and 291 and 343 and 321 and 283 and 219; ipGTT glucose ([9]; NeraSTZ, 90 min after glc, individual mice): 181 and 290 and 234 and 159 and 228 and 264 and 184 and 260 and 250 and 205 and 248 and 195; ipGTT glucose ([9]; NeraSTZ, 120 min after glc, individual mice): 136 and 229 and 175 and 112 and 213 and 180 and 169 and 210 and 211 and 164 and 187; AUC ipGTT ([9]; NeraSTZ, individual mice): 27682.5 and 33750 and 31770 and 23017.5 and 30135 and 34725 and 29565 and 36360 and 31732.5; inhibition at 10 µM [10]: 88%; inhibition at 10 µM [11]: 19%; β-cell apoptosis ([12]; db/db, day 31): significantly reduced β-cell apoptosis; TUNEL%/ mouse ([12]; Mean): 0.5462%; TUNEL%/ mouse ([12]; individual mice): 0.6553% and 0.4112% and 0.66% and 0.4585%
